In brackets after ≈: the same amount, converted by molar mass.
Experiments:
[1] = system: Staphylococcus aureus (ATCC 43300); experiment: Antibacterial MIC, broth microdilution (CLSI); format: cell-based; conditions: for MIC80: Staphylococcus aureus, ATCC43300, read-out: MIC80 S. aureus; for S. aureus Selectivity Indices, Group: SI, IC50 (μM)/MIC80 (μM), HEK293 cytotoxicity
[2] = system: Enterococcus faecalis (ATCC 51299); experiment: Antibacterial MIC, broth microdilution (CLSI); format: cell-based; conditions: for MIC80: Enterococcus faecalis, ATCC51299, read-out: MIC80 E. faecalis; for E. faecalis Selectivity Indices, Group: SI, IC50 (μM)/MIC80 (μM), HEK293 cytotoxicity
[3] = system: Escherichia coli (ATCC 25922); experiment: Antibacterial MIC, broth microdilution (CLSI); format: cell-based; conditions: Escherichia coli, ATCC25922; read-out: MIC80 E. coli
[4] = system: Genomic double stranded DNA (salmon); experiment: Fluorescence intercalator displacement (FID) assay, SYBR-safe probe; conditions: 20 μM compound, 30° C., lower % = stronger binding
Procedure: (§1) The ability of compounds of the invention to bind to DNA and RNA was assessed using a fluorescence intercalator displacement assay. Genomic double stranded DNA (salmon) or PolyAU double stranded RNA is treated with probe molecule (Sybr-Safe) that increases its fluorescence upon binding to nucleic acids.
(§2) polyAU RNA (Polyadenylic acid—Polyuridylic acid sodium salt, double-stranded homopolymer, P1537, Merck) or genomic DNA (Deoxyribonucleic acid sodium salt from salmon testes, D1626, Merck) was dissolved in 1 mM pH 7.4 phosphate buffer (containing 0.27 mM potassium chloride, 13.7 mM sodium chloride) to a concentration of 1 mg/mL in, SybrSafe (SYBR® Safe DNA Gel Stain, ×10,000 in DMSO, S33102 Invitrogen) was used as supplied by the manufacturer in DMSO, and compounds of the invention were prepared as 10 mM stocks in DMSO. These stock solutions were diluted appropriately with each other and 1 mM phosphate buffer to give test solutions comprised of 20 μM compound of the invention, 12500-fold dilution of SybrSafe and 3.76 ng/mL RNA/DNA. Control solutions of RNA/DNA and SybrSafe, RNA/DNA, and SybrSafe at these concentrations were also prepared. Test and control solutions were heated to 30° C. and the fluorescence of each solution was measured using the SYBER filter setting of a StepOnePlus using melt analysis mode (StepOne Software v2.3). The reduction of fluorescence due to the binding of the compound of the invention to the RNA/DNA was calculated as a normalised percentage based on the fluorescence measured due to the control with SybrSafe and RNA/DNA as maximum and the control with only SybrSafe as minimum.
(§3) A reduction in normalised % is indicative of probe displacement and thus strong nucleic acid binding.

[5] = system: PolyAU double stranded RNA; experiment: as above; conditions: 20 μM compound, 30° C., lower % = stronger binding
Procedure: as §1, §2, §3

T. vaginalis = experiment: Trichomonas resorufin assay; format: cell-based; conditions: for T. vaginalis Selectivity Indices, Group: SI, IC50 (μM)/IC50 (μM), HEK293 cytotoxicity; for IC50: Trichomonas vaginalis, read-out: IC50 T. vaginalis

SMILES	MIC80 [1] [µM]	MIC80 [2] [µM]	MIC80 [3] [µM]	% Normalised Fluorescence with gDNA [4] [%]	% Normalised Fluorescence with polyAU RNA [5] [%]	other results
CN(C)c1ccc(/C=C/c2ccc(C(=O)Nc3c[nH]c(C(=O)Nc4cc(C(=O)NCCN5CCOCC5)n(C)c4)c3)cn2)cc1 [IIIb2, (E)-6-(4-(dimethylamino)styryl)-N-(5-((1-methyl-5-((2-morpholinoethyl)carbamoyl)-1H-pyrrol-3-yl)carbamoyl)-1H-pyrrol-3-yl)nicotinamide]	5 to 25 (≈ 3.05 to 15.3 µg/mL)	> 100	> 100	31	85	–
CCNC(=O)c1cc(NC(=O)c2cc(NC(=O)c3ccc(/C=C/c4cnc5ccccc5c4)cc3)cn2C)cn1C [IVa6, (E)-N-ethyl-1-methyl-4-(1-methyl-4-(4-(2-(quinolin-3-yl)vinyl)benzamido)-1H-pyrrole-2-carboxamido)-1H-pyrrole-2-carboxamide]	< 5	< 5	> 100	–	–	E. faecalis Selectivity Indices, Group ([2]; Amides): B (Group B: 0.4 < SI <= 1.5); T. vaginalis Selectivity Indices, Group (T. vaginalis; Amides): B (Group B: 0.25 < SI <= 0.5); IC50 (T. vaginalis): 1 to 5 µM
Cn1cc(NC(=O)c2cc(NC(=O)c3ccc(/C=C/c4cnc5ccccc5c4)cc3)cn2C)cc1C(=O)NCCCCN1CCCCC1 [IVa11, (E)-1-methyl-4-(1-methyl-4-(4-(2-(quinolin-3-yl)vinyl)benzamido)-1H-pyrrole-2-carboxamido)-N-(4-(piperidin-1-yl)butyl)-1H-pyrrole-2-carboxamide]	5 to 25 (≈ 3.29 to 16.4 µg/mL)	5 to 25 (≈ 3.29 to 16.4 µg/mL)	> 100	42	68	–
Cn1cc(NC(=O)c2cc(NC(=O)c3ccc(/C=C/c4cnc5ccccc5c4)cc3)cn2C)cc1C(=O)NCCCCN1CCCC1 [IVa12, (E)-1-methyl-4-(1-methyl-4-(4-(2-(quinolin-3-yl)vinyl)benzamido)-1H-pyrrole-2-carboxamido)-N-(4-(pyrrolidin-1-yl)butyl)-1H-pyrrole-2-carboxamide]	5 to 25 (≈ 3.22 to 16.1 µg/mL)	< 5	> 100	50	71	–
CNC(=O)c1cc(NC(=O)c2cc(NC(=O)c3ccc(/C=C/c4ccc(N(C)C)cc4)nc3)cn2C)cn1C [IVa13, (E)-6-(4-(dimethylamino)styryl)-N-(1-methyl-5-((1-methyl-5-(methylcarbamoyl)-1H-pyrrol-3-yl)carbamoyl)-1H-pyrrol-3-yl)nicotinamide]	< 5	< 5	> 100	80	83	–
CN(C)c1ccc(/C=C/c2ccc(C(=O)Nc3cc(C(=O)Nc4cc(C(=O)NCCCCN5CCCCC5)n(C)c4)n(C)c3)cn2)cc1 [IVa14, (E)-6-(4-(dimethylamino)styryl)-N-(1-methyl-5-((1-methyl-5-((4-(piperidin-1-yl)butyl)carbamoyl)-1H-pyrrol-3-yl)carbamoyl)-1H-pyrrol-3-yl)nicotinamide]	5 to 25 (≈ 3.25 to 16.3 µg/mL)	25 to 100 (≈ 16.3 to 65.1 µg/mL)	> 100	19	12	–
CN(C)c1ccc(/C=C/c2ccc(C(=O)Nc3cc(C(=O)Nc4cc(C(=O)NCCCCN5CCCC5)n(C)c4)n(C)c3)cn2)cc1 [IVa15, (E)-6-(4-(dimethylamino)styryl)-N-(1-methyl-5-((1-methyl-5-((4-(pyrrolidin-1-yl)butyl)carbamoyl)-1H-pyrrol-3-yl)carbamoyl)-1H-pyrrol-3-yl)nicotinamide]	> 100	25 to 100 (≈ 15.9 to 63.7 µg/mL)	> 100	15	8	–
Cn1cc(NC(=O)c2ccc(/C=C/c3cnc4ccccc4c3)cc2)cc1C(=O)Nc1cc(C(=O)N2CCCCC2)n(C)c1 [IVb1, (E)-1-methyl-N-(1-methyl-5-(piperidine-1-carbonyl)-1H-pyrrol-3-yl)-4-(4-(2-(quinolin-3-yl)vinyl)benzamido)-1H-pyrrole-2-carboxamide]	25 to 100 (≈ 14.7 to 58.7 µg/mL)	> 100	> 100	–	–	IC50 (T. vaginalis): 5 to 50 µM
Cn1cc(NC(=O)c2ccc(/C=C/c3cnc4ccccc4c3)cc2)cc1C(=O)Nc1cc(C(=O)N2CCSCC2)n(C)c1 [IVb2, (E)-1-methyl-N-(1-methyl-5-(thiomorpholine-4-carbonyl)-1H-pyrrol-3-yl)-4-(4-(2-(quinolin-3-yl)vinyl)benzamido)-1H-pyrrole-2-carboxamide]	25 to 100 (≈ 15.1 to 60.5 µg/mL)	> 100	> 100	–	–	IC50 (T. vaginalis): 5 to 50 µM
Cn1cc(NC(=O)c2ccc(/C=C/c3cnc4ccccc4c3)cc2)cc1C(=O)Nc1cc(C(=O)N2CCCCCC2)n(C)c1 [IVb3, (E)-N-(5-(azepane-1-carbonyl)-1-methyl-1H-pyrrol-3-yl)-1-methyl-4-(4-(2-(quinolin-3-yl)vinyl)benzamido)-1H-pyrrole-2-carboxamide]	25 to 100 (≈ 15 to 60.1 µg/mL)	> 100	> 100	–	–	IC50 (T. vaginalis): 5 to 50 µM
CCNC(=N)CCNC(=O)c1cc(NC(=O)c2cc(NC(=O)c3ccc(/C=C/c4ccc(OC)cc4)cc3)cn2C)cn1C [Ia20, (E)-N-(3-(ethylamino)-3-iminopropyl)-4-(4-(4-(4-methoxystyryl)benzamido)-1-methyl-1H-pyrrole-2-carboxamido)-1-methyl-1H-pyrrole-2-carboxamide]	5 to 25 (≈ 2.98 to 14.9 µg/mL)	5 to 25 (≈ 2.98 to 14.9 µg/mL)	25 to 100 (≈ 14.9 to 59.6 µg/mL)	3	6	–
CC/N=C(/CCNC(=O)c1cc(NC(=O)c2cc(NC(=O)c3ccc(/C=C/c4ccc5nonc5c4)cc3)cn2C)cn1C)NCC [Ia25, 4-(4-((E)-2-(benzo[c][1,2,5]oxadiazol-5-yl)vinyl)benzamido)-N-(5-(((Z)-3-(ethylamino)-3-(ethylimino)propyl)carbamoyl)-1-methyl-1H-pyrrol-3-yl)-1-methyl-1H-pyrrole-2-carboxamide]	25 to 100 (≈ 15.9 to 63.6 µg/mL)	> 100	> 100	28	12	–
CONC(=N)CCNC(=O)c1cc(NC(=O)c2cc(NC(=O)c3ccc(/C=C/c4cnc5ccccc5c4)cc3)cn2C)cn1C [Ia28, (E)-N-(3-imino-3-(methoxyamino)propyl)-1-methyl-4-(1-methyl-4-(4-(2-(quinolin-3-yl)vinyl)benzamido)-1H-pyrrole-2-carboxamido)-1H-pyrrole-2-carboxamide]	< 5	< 5	> 100	34	66	–
CCCCCCCCCCCCC[N+](C)(C)CCNC(=O)c1cc(NC(=O)c2cc(NC(=O)c3ccc(/C=C/c4cnc5ccccc5c4)cc3)cn2C)cn1C [Ic12, (E)-N,N-dimethyl-N-(2-(1-methyl-4-(1-methyl-4-(4-(2-(quinolin-3-yl)vinyl)benzamido)-1H-pyrrole-2-carboxamido)-1H-pyrrole-2-carboxamido)ethyl)tridecan-1-aminium]	–	–	–	94	38	–
CCCCCCCCCCCCCCCCC[N+](C)(C)CCNC(=O)c1cc(NC(=O)c2cc(NC(=O)c3ccc(/C=C/c4cnc5ccccc5c4)cc3)cn2C)cn1C [Ic16, (E)-N,N-dimethyl-N-(2-(1-methyl-4-(1-methyl-4-(4-(2-(quinolin-3-yl)vinyl)benzamido)-1H-pyrrole-2-carboxamido)-1H-pyrrole-2-carboxamido)ethyl)heptadecan-1-aminium]	–	–	–	98	64	–
CN(C)CCNC(=O)c1cc(NC(=O)c2cc(NC(=O)c3ccc(/C=C/c4cnc5ccccc5c4)cc3)cn2C)cn1C [Ref-7, (E)-N-(2-(dimethylamino)ethyl)-1-methyl-4-(1-methyl-4-(4-(2-(quinolin-3-yl)vinyl)benzamido)-1H-pyrrole-2-carboxamido)-1H-pyrrole-2-carboxamide, reference compound]	–	–	–	–	–	S. aureus Selectivity Indices, Group ([1]; Alkyl Amidines and NH Pyrroles): A (Group A: SI < 3); S. aureus Selectivity Indices, Group ([1]; Quaternary ammoniums): A (Group A: SI < 2); E. faecalis Selectivity Indices, Group ([2]; Alkyl Amidines and NH Pyrroles): A (Group A: SI < 3); E. faecalis Selectivity Indices, Group ([2]; Quaternary ammoniums): A (Group A: SI < 0.7); T. vaginalis Selectivity Indices, Group (T. vaginalis; Alkyl Amidines and NH Pyrroles): A (Group A: SI < 8); T. vaginalis Selectivity Indices, Group (T. vaginalis; Quaternary ammoniums): A (Group A: SI < 0.8)

From patent publication US20250313546A1, “NUCLEIC ACID BINDERS” (UNIVERSITY OF STRATHCLYDE, priority 2022, published 2025)
